Measured values from patent publication US20230382916A1, “HETEROARYL HETEROCYCLIC COMPOUNDS AND USES THEREOF” (HUTCHISON MEDIPHARMA LIMITED, priority 2020, published 2023).

Columns and labels:
[1] = target: BTK recombinant protein (Homo sapiens (Human), UniProt Q06187); assay: Determination of biochemical BTK (Z'-LYTE kinase assay); settings: 32 μM ATP
[2] = Stability test in liver microsomes (rat); assay type: in vitro ADME; settings: rat liver microsomes 0.5 mg/mL, 1 μM compound
Experimental: (§1) Both male CD-1 mouse pooled liver microsomes and male SD rat pooled liver microsomes were purchased from BioreclamationIVT Corporation, USA.
(§2) The test compound stock solution was diluted with an organic solvent (usually a mixture of acetonitrile, methanol and water with various ratios, depending on the solubility of the compound, if necessary, 1 N hydrochloric acid or 1 N sodium hydroxide would be added to facilitate solubilization) to the 0.1 mM (the final concentration of the compound in the reaction system was 1 μM) and the concentration percentage of the organic solvents in the incubation system no more than 1% (wherein the percentage of DMSO was required to be no more than 0.1%). An appropriate amount of 100 mM NADP, 500 mM G-6-P and 100 Unit/mL G-6-PDH were mixed and diluted with ultrapure water (the final system contains 1 mM NADP, 5 mM G-6-P and 1 Unit/mL G-6-PDH), pre-incubated in a 37° C. water bath for 10 minutes and then placed on ice for use as a NADPH regeneration solution. 20 mg/mL liver microsomes solution and 200 mM phosphate buffer were mixed, and diluted with ultrapure water to give a liver microsomes solution containing 2.5 mg/mL liver microsomes (the final concentration of the reaction system is 0.5 mg/mL) and 50 mM phosphate buffer. The diluted liver microsomes solution was mixed with 0.1 mM compound solution, a mixture of 100 mM EDTA, 300 mM MgCl2 solution, 200 mM phosphate buffer (the final system was 3 mM MgCl2, 1 mM EDTA and 50 mM phosphate buffer) and water in an appropriate volume was added. Finally, the NADPH regeneration solution was added, then the reaction solution was placed in a 37° C. water bath to start the reaction (the reaction time was 30 minutes), and the reaction was stopped by adding the ice-cold acetonitrile reaction stopping solution containing the internal standard. The 0-minute sample was not incubated in a 37° C. water bath, and its difference from the 30-minute sample further lies in that the ice-cold acetonitrile reaction stopping solution containing the internal standard was added first, and then the NADPH regeneration solution was added. The sample added with the reaction stopping internal standard solution was vortexed and mixed well, and then centrifuged at 4400 rpm for 10 minutes. The supernatant was taken and diluted ten times with 50% methanol for LC-MS/MS analysis.
(§3) LC-MS/MS was used to determine the concentration of the compound in the sample. The percentage of the remaining compound after 30 minutes of incubation comparing with that in the 0-minute sample was calculated using the peak area ratio of the compound to the internal standard as an indicator, to evaluate the metabolic stability of the compound.

[3] = Stability test in liver microsomes (mouse); assay type: in vitro ADME; settings: mouse liver microsomes 0.5 mg/mL, 1 μM compound
Experimental: as §1, §2, §3

Sequence of BTK recombinant protein (Q06187 whole entry): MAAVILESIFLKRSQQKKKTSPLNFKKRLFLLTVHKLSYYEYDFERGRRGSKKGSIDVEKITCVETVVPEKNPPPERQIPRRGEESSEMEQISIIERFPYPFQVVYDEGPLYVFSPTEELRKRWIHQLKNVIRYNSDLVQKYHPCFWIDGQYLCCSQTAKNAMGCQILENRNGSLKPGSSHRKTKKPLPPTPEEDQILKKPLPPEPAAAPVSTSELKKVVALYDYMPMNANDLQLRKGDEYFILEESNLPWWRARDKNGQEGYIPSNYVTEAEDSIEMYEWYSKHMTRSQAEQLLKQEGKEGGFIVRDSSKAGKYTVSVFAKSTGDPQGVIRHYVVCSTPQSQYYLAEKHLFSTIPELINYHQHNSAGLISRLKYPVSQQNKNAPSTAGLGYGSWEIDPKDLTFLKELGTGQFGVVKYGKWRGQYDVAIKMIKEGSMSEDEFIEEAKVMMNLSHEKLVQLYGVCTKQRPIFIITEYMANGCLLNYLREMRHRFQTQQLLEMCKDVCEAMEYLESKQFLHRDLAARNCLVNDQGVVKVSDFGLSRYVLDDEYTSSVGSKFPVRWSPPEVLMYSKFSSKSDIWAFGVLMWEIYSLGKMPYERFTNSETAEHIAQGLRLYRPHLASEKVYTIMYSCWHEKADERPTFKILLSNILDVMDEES

## C[C@H]1CN(C2COC2)C[C@H](C)N1c1ccc(Nc2cc(-c3ccnc(-n4ccn5c6c(cc5c4=O)CC(C)(C)C6)c3CO)cn(C)c2=O)nc1 [Compound 1, 2-(5-((5-((2S,6S)-2,6-dimethyl-4-(oxetan-3-yl)piperazin-1-yl)pyridin-2-yl)amino)-3′-(hydroxymethyl)-1-methyl-6-oxo-1,6-dihydro-[3,4′-bipyridin]-2′-yl)-7,7-dimethyl-7,8-dihydro-2H-cyclopenta[4,5]pyrrolo[1,2-a]pyrazin-1(6H)-one]
[1]
  IC50: 10 nM
[2]
  RLM, percentage of the remaining compound after 30 minutes of incubation: 87.9%
[3]
  MLM, percentage of the remaining compound after 30 minutes of incubation: 91.6%
